These results are taken from patent publication USRE40793E1, “Bicyclic benzamides of 3-or 4-substituted 4-(aminomethyl)-piperidine derivatives” (Janssen Pharmaceutica, N.V., priority 1997, dated 2009).

The subject of this experiment is conscious dogs. Kind of experiment: Gastric emptying of an acaloric liquid test meal delayed by administration of lidamidine, in conscious dogs. In kind it is in vivo, beagle dogs. The following applies: compounds, conscious dog, Δt = t 70% compound minus t 70% solvent, relative to t 70% solvent. From the text:
C. Pharmacological Examples C.1. Gastric Emptying of an Acaloric Liquid Test Meal Delayed by Administration of Lidamidine, in Conscious Dogs
Female beagle dogs, weighing 7-14 kg, were trained to stand quietly in Pavlov frames. They were implanted with a gastric cannula under general anesthesia and aseptic precautions. After a medium laparatomy, an incision was made through the gastric wall in the longitudinal direction between the greater and the lesser curve, 2 cm above the nerves of Latarjet. The cannula was secured to the gastric wall by means of a double purse string suture and brought out via a stab wound at the left quadrant of the hypochondrium. Dogs were allowed a recovery period of at least two weeks. Experiments were started after a fasting period of 24 hours, during which water was available ad libitum. At the beginning of the experiment, the cannula was opened in order to remove any gastric juice or food remnants.
The stomach was cleansed with 40 to 50 ml lukewarm water. The test compound was administered I.V. (in a volume ≦3 ml via the vena cephalica), S.C. (in a volume ≦3 ml) or P.O. (in a volume of 1 ml/kg body weight, applied intragastrically via the cannula with a device that filled the lumen of the cannula: after injection of the test compound; 5 ml NaCl 0.9% was injected in order to correct for the dead space in the injection system). Immediately after administration of the test compound or its solvent, lidamidine (0.63 mg/kg was administered subcutaneously. 30 min later, the cannula was opened to determine the amount of fluid present in the stomach, promptly followed by reintroduction of the fluid. Then the test meal was administered via the cannula. This test meal consisted of 250 ml distilled water containing glucose (5 g/l) as a marker. The cannula remained closed for 30 min, whereafter the gastric contents were drained from the stomach to measure total volume (t=30 min). For later analysis 1 ml of the gastric contents was taken, promptly followed by reintroduction of the rest volume into the stomach. This sequence was repeated 4 times with 30 min intervals (t=60, 90, 120, 150 min).
In the 1 ml samples of the gastric contents, the glucose concentrations were measured on a Hitachi 717 automatic analyzer by the hexokinase method (Schmidt, 1961).
Curves were fitted to the measurement points (glucose versus time) using weighed non-linear regression analysis. Gastric emptying was quantified as the time needed to empty 70% of the meal (t 70%). The control emptying time was calculated as the mean t 70% of the last 5 solvent experiments of the same dog. Acceleration of delayed gastric emptying (Δt) was calculated as the time difference between t 70% compound and t 70% solvent. To correct for variations in emptying rate between dogs, Δt was expressed as % of t 70% solvent (Schuurkes et al. 1992)).

As for `COCCCN1CC[C@@H](CNC(=O)c2cc(Cl)c(N)c3c2OCCO3)[C@H](O)C1` (relative stereo) [Compound 57], under “dose 0.0025 mg/kg”, the “ΔT/T^b (acceleration of gastric emptying of a liquid meal delayed by lidamidine)” value was −0.03. The “ΔT/T^a (acceleration of gastric emptying of a liquid meal delayed by lidamidine)” value (dose 0.01 mg/kg) was −0.10.
Consider `CC(=O)CCCN1CC[C@@H](CNC(=O)c2cc(Cl)c(N)c3c2OCCO3)[C@@H](O)C1` (relative stereo) [Compound 58], for which, where the note is “dose 0.0025 mg/kg”, the “ΔT/T^b (acceleration of gastric emptying of a liquid meal delayed by lidamidine)” value was −0.20. For the same compound, under “dose 0.01 mg/kg”, the “ΔT/T^a (acceleration of gastric emptying of a liquid meal delayed by lidamidine)” value worked out at 0.09.
Regarding `CC(=O)CCCN1CC[C@@H](CNC(=O)c2cc(Cl)c(N)c3c2OCCO3)[C@H](O)C1.O` (relative stereo) [Compound 59], the “ΔT/T^b (acceleration of gastric emptying of a liquid meal delayed by lidamidine)” value (dose 0.0025 mg/kg) is reported as −0.15. The “ΔT/T^a (acceleration of gastric emptying of a liquid meal delayed by lidamidine)” value (dose 0.01 mg/kg) was −0.13.
As to `CCCCN1CC[C@@H](CNC(=O)c2cc(Cl)c(N)c3c2OCCCO3)[C@H](O)C1.Cl` (relative stereo) [Compound 65], the “ΔT/T^a (acceleration of gastric emptying of a liquid meal delayed by lidamidine)” value (dose 0.01 mg/kg) is on record as −0.07.
Same read-out and setting: then `Nc1c(Cl)cc(C(=O)NC[C@@H]2CCN(CCCO)C[C@H]2O)c2c1CCCO2.O.O` (relative stereo) [Compound 74], with −0.51.
For the compound `Nc1c(Cl)cc(C(=O)NC[C@@H]2CCN(CCOCCO)C[C@H]2O)c2c1CCCO2.O=C(O)C(=O)O` (relative stereo) [Compound 75], the “ΔT/T^b (acceleration of gastric emptying of a liquid meal delayed by lidamidine)” value (dose 0.0025 mg/kg) is given as −0.39. In addition, the “ΔT/T^a (acceleration of gastric emptying of a liquid meal delayed by lidamidine)” value (dose 0.01 mg/kg) was −0.01.
On to `N#CCN1CC[C@@H](CNC(=O)c2cc(Cl)c(N)c3c2OCCC3)[C@H](O)C1` (relative stereo) [Compound 76], for which, for the setting “dose 0.01 mg/kg”, the “ΔT/T^a (acceleration of gastric emptying of a liquid meal delayed by lidamidine)” value is −0.18.
On the same count and under the same terms, with `N#CCCCN1CC[C@@H](CNC(=O)c2cc(Cl)c(N)c3c2OCCC3)[C@H](O)C1` (relative stereo) [Compound 77] the figure was −0.18.
As for `CCCCN1CC[C@@H](CNC(=O)c2cc(Cl)c(N)c3c2OCCC3)[C@H](O)C1` (relative stereo) [Compound 78, trans-5-amino-N-[(1-butyl-3-hydroxy-4-piperidinyl)methyl]-6-chloro-3,4-dihydro-2H-1-benzopyran-8-carboxamide], where the note is “Canis lupus familiaris, dose 0.0025 mg/kg, read-out: ΔT/T^b (acceleration of gastric emptying of a liquid meal delayed by lidamidine)”, the change in vivo at 0.0025 mg/kg is -33%. Where the note is “Canis lupus familiaris, dose 0.01 mg/kg, read-out: ΔT/T^a (acceleration of gastric emptying of a liquid meal delayed by lidamidine)”, the change in vivo at 0.01 mg/kg was -50%.
For `CC(=O)CCCN1CC[C@@H](CNC(=O)c2cc(Cl)c(N)c3c2OCCC3)[C@H](O)C1` (relative stereo) [Compound 80], the “ΔT/T^b (acceleration of gastric emptying of a liquid meal delayed by lidamidine)” value (dose 0.0025 mg/kg) is listed as −0.11. Also, for the setting “dose 0.01 mg/kg”, the “ΔT/T^a (acceleration of gastric emptying of a liquid meal delayed by lidamidine)” value is listed as −0.51.
Consider `COCCCN1CCC(O)(CNC(=O)c2cc(Cl)c(N)c3c2OC(C)(C)C3)CC1` [Compound 86], for which, where the note is “dose 0.0025 mg/kg”, the “ΔT/T^b (acceleration of gastric emptying of a liquid meal delayed by lidamidine)” value is −0.33. The “ΔT/T^a (acceleration of gastric emptying of a liquid meal delayed by lidamidine)” value (dose 0.01 mg/kg) is −0.47.
In the case of `CC(=O)CCCN1CCC(O)(CNC(=O)c2cc(Cl)c(N)c3c2OC(C)(C)C3)CC1` [Compound 93], the “ΔT/T^a (acceleration of gastric emptying of a liquid meal delayed by lidamidine)” value (dose 0.01 mg/kg) was −0.03.
Turning to “(cis)-4-amino-5-chloro-2,3-dihydro-N-[[3-hydroxy-1-[3-(2-methyl-1,3-dioxolan-2-yl)propyl-]4-piperidinyl]methyl]-7-benzofurancarboxamide [Compound 7]”, the “ΔT/T^b (acceleration of gastric emptying of a liquid meal delayed by lidamidine)” value (dose 0.0025 mg/kg) was −0.07. Also, the “ΔT/T^a (acceleration of gastric emptying of a liquid meal delayed by lidamidine)” value (dose 0.01 mg/kg) was determined as 0.11.
